{"source": "patent US5196568A", "about": "“Compounds useful in enzymatic resolution systems and their preparation” (priority 1988, dated 1993)", "key": {"[1]": {"molecular_target": "T1, Protease VIII \"Subtilopeptidase A\" (subtilisin Carlsberg) (Enzyme B) (Bacillus licheniformis, UniProt P00780)", "T1 sequence (P00780 106-379)": "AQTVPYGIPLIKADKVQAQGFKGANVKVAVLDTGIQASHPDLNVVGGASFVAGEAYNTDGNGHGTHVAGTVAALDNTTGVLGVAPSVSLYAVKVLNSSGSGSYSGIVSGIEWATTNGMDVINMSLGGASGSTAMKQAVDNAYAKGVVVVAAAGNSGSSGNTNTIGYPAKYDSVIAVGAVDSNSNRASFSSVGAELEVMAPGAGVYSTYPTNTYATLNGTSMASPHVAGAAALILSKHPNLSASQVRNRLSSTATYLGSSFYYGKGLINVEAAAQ", "assay": "Homogeneous aqueous enzymatic resolution with Enzyme B", "assay_type": "biochemical"}, "[2]": {"system": "Protease XXIII from Aspergillus oryzae (Enzyme A)", "assay": "Homogeneous aqueous enzymatic resolution (ester hydrolysis) with Enzyme A", "assay_type": "biochemical", "description": "No further purification was performed."}, "[3]": {"settings": "cited from earlier work"}, "[4]": {"system": "lipase from Candida cylindracea (Meito Sangyo, Lipase OF)", "assay": "Activity of Lipase OF against the ester", "assay_type": "biochemical"}, "[5]": {"system": "protease Prozyme 6 (Enzyme F)", "assay": "Asymmetric hydrolysis in an extractive membrane reactor with Enzyme F", "assay_type": "biochemical, Aspergillus oryzae", "excerpt": "Hexane was recirculated through the lumen or bores of the fibers in the module. The aqueous solution in the shell contained the enzyme and ester. While the cellulose membrane is water-wet, the membrane rejects the macromolecular enzyme (molecular weight 18,000). Therefore, the enzyme resides solely in the aqueous ester solution. As the ibuprofen acid was formed, it was extracted into the hexane phase, thereby reducing the effect of product (ibuprofen acid) inhibition on the activity of the enzyme.\nThe aqueous phase used to extract the ibuprofen acid from hexane in this module contained 0.1 M sodium carbonate buffer at pH 9.5. The pH was maintained at this value by the addition of 8.22M sodium hydroxide as required.\nIn this Example, the aqueous stream in the extractive membrane reactor module consisted of a solution of the sulfomethyl ester of ibuprofen (1), which solution was prepared by adding 32.51 gm of the sodium salt of the ester (at 75% chemical purity) to 1000 ml of 0.1M sodium phosphate buffer (pH 7.0). The reaction was started by adding 2 gm of the protease (F) from the fungus Aspergillus oryzae (from Amano Enzyme Corporation, Prozyme 6, 60,000 units per […] of solid). Reaction progress was followed by automatic titrimetry using a pH-stat.\nThe pH 9.5 solution was then acidified to pH 2 and extracted with 2 volumes of t-butyl methyl ether. The ether phase was first washed with two volumes of distilled water, then dried over MgSO4. and subsequently evaporated to dryness. The resolved ibuprofen product was recovered as about 6 gm of a white powder.\nThe optical rotation of the recovered product was measured by polarimetry; the experimentally determined value for [α]D was -56.7° (measured at c=0.815 in ethanol), thereby indicating the R isomer of ibuprofen. The sample was also analyzed by chiral HPLC using a Bakerbond DNBPG (covalent) column (4.6×250 mm), with 96.9% hexane:3.0% 2-propanol:0.1% acetonitrile as the mobile phase at 2 ml/min after derivatization with napthalene amine. The detector was a UV spectrophotometer set at 223 nm. The retention times for the S and R ibuprofen acids were 18.5 and 20.0 min, respectively. The optical purity or enantiomeric excess of this R ibuprofen sample as determined by this chiral HPLC procedure was 99.3% (i.e., enantiomeric excess of R ibuprofen).\nThe aqueous phase at pH 7.0 (as recovered from the extractive membrane reactor) was mixed with 280 gm of sodium chloride to salt out the remaining unconverted ester. The ester was filtered, washed with saturated sodium chloride, and air dried. 12.8 gm of ester were recovered in this manner. […] The optical rotation (as measured by polarimetry) was [α]D =+57.4° (c=1.29 in ethanol), indicating the S isomer of ibuprofen. […]"}, "[6]": {"system": "protease Prozyme 6 (Enzyme F)", "assay": "Homogeneous aqueous enzymatic resolution with Enzyme F", "assay_type": "biochemical, Aspergillus oryzae", "settings": "for Conversion in Homogeneous Aqueous Reaction System: 0.5M ester, pH 7.0, 30 C", "description": "The enzymatic reaction mixtures were capped and briefly shaken until all the substrate had dissolved, and the enzyme had completely dissolved or dispersed. […] Evaporation of the ether left a white solid. The result is summarized below in Table 11 Rotations were measured at c=1 in CHCl3.\nThe enzymatic reaction mixtures were capped and briefly shaken until all the substrate had dissolved, and the enzyme had completely dissolved or dispersed. […] Evaporation of the ether left a white solid. Rotations were measured at c=1 in CHCl3.\nThe reaction was started by adding 100 mg of the protease (F) from the fungus Aspergillus oryzae (from Amano Enzyme Corporation, Prozyme 6, 60,000 units per mg of solid).\nAfter 20 hours at room temperature, the solution was acidified to pH 2 and extracted with 3 volumes of diethyl ether. The aqueous phase was saved for subsequent workup. The ether phase was washed with two volumes of distilled water and then one volume of saturated sodium chloride, and then it was dried over MgSO4 and subsequently evaporated to dryness. The resolved ibuprofen product recovered was 930 mg of white powder, indicating 45% conversion of racemic ester to acid. The optical rotation was -0.580° (measured at c=1 in ethanol), indicating the R isomer of ibuprofen.\n35 mg of protease Enzyme F, as the commercial preparation Prozyme 6, were added to the aqueous solution. The reaction flask was capped, and briefly shaken until all the enzyme had dissolved or dispersed. […] The resulting mixture was diluted with one volume of water and was extracted with diethyl ether (2 times 200 ml). The ether layers were combined and backwashed with water (2 times 200 ml), saturated NaCl solution (200 ml), and then dried over MgSO4.\nIn this control run, a 0.5M ester solution of (1) was prepared in 325 ml of 0.1M sodium phosphate buffer (pH 7.0). The reaction was started by adding 3 gm of the above enzyme (F). The pH was controlled at 7.0 with 8.22M sodium hydroxide. After 6.49 hours at 30° C., 6.63 ml of hydroxide were added, indicating 37.7% conversion. The reaction was allowed to continue overnight and, after 23.1 hours, a total of 7.2 ml of sodium hydroxide were added, indicating 40.9% conversion."}, "[7]": {"system": "protease Prozyme 6 (Enzyme F)", "assay": "Asymmetric hydrolysis in an extractive dispersion reactor with Enzyme F", "assay_type": "biochemical, Aspergillus oryzae", "settings": "100 mg Prozyme 6, 3.38 gm ester in 100 ml buffer pH 7.0 and 100 ml hexane, 3.5 hours, room temperature", "description": "In this Example, the hexane was dispersed in the reaction vessel to extract the inhibitory ibuprofen acid as it is formed. The reaction was started by adding 100 mg of the protease from the fungus Aspergillus oryzae (from Amano Enzyme Corporation, Prozyme 6, 60,000 units per mg of solid).\nAfter 3.5 hours at room temperature with vigorous stirring, the solution was acidified to pH 2 and extracted with 2 volumes of hexane. The aqueous phase was saved for subsequent workup. The hexane phase was dried over MgSO4 and evaporated to dryness. The resolved ibuprofen product so recovered consisted of 490 mg of white powder, indicating 24% conversion. The optical rotation was -0.568° (c=1.015 in ethanol), indicating the R isomer of ibuprofen."}, "[8]": {"molecular_target": "T2, Protease XXVII \"Nagarse\" (Enzyme D) (Bacillus amyloliquefaciens, UniProt P00782)", "T2 construct": "purchased Protease XXVII", "T2 sequence (P00782 108-382)": "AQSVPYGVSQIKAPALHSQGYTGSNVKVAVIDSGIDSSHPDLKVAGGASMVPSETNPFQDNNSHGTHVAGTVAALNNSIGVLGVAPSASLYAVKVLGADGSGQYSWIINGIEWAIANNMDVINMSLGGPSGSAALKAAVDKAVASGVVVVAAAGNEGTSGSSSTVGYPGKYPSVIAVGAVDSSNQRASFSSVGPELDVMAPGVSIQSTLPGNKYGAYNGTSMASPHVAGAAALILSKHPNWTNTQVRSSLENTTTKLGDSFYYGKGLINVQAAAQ", "assay": "Homogeneous aqueous enzymatic resolution with Enzyme D", "assay_type": "biochemical", "settings": "acid product (R); 150 mg enzyme D, pH 7.8"}, "Pig Liver Esterase (E)": {"system": "Pig Liver Esterase (E)", "assay": "Homogeneous aqueous enzymatic resolution with Enzyme E", "assay_type": "biochemical", "settings": "30 mg Pig Liver Esterase"}, "[9]": {"system": "Protease XVI from Bacillus subtilis (Enzyme C)", "assay": "Homogeneous aqueous enzymatic resolution with Enzyme C", "assay_type": "biochemical", "settings": "100 mg enzyme C, 10 mmol ester in 100 ml 0.2M phosphate buffer pH 7.0, 20 hours, 20-22 C"}, "[10]": {"assay": "Solubility of esters, absorbance of saturated solutions at 262 nm", "assay_type": "physicochemical", "settings": "saturated solution, pH 7 (50 mM phosphate buffer), room temperature"}}, "note": "Counter-ions that a name gives are not always drawn."}
{"molecule": "CC(CSC(=O)c1ccccc1)C(=O)OCS(=O)(=O)O", "note": "(racemic) [Compound 16, Potassium Salt of the Sulfomethyl Ester of (±)-S-3-Benzoylthio-2-methylpropanoic Acid]", "values": [{"measurement": "% e.e.", "setting": "[1]; acid product (S), 100 mg enzyme B, pH 7.0, 25 C, 18 hours", "result": 10, "unit": "%"}, {"measurement": "% CONVERSION", "setting": "[2]; 100 mg enzyme A, 10.0 mmol ester in 100 ml 2M Na3PO4 buffer pH 7.0, 25 C, 18 hours", "result": 53, "unit": "%"}, {"measurement": "% e.e.", "setting": "[2]; acid product (S), 100 mg enzyme A, pH 7.0, 25 C, 18 hours", "result": 3, "unit": "%"}]}
{"molecule": "COc1ccc2cc([C@H](C)C(=O)O)ccc2c1", "note": "(stereo in doubt) [naproxen, (+)-S-2-(6-methoxy-2-naphthyl)propanoic acid]", "values": [{"measurement": "times more therapeutically potent than its R(-) counterpart", "setting": "[3]; S(+) enantiomer vs R(-)", "result": 28, "unit": "times"}]}
{"molecule": "CC(C)Cc1ccc(C(C)C(=O)OCS(=O)(=O)O)cc1", "note": "(centres unmarked) [Compound 1, Sodium Salt of 4-Sulfomethyl Ester of 2-(4-Isobutylphenyl)propanoic Acid]", "values": [{"measurement": "activity of the lipase against the ester", "setting": "[4]", "result": "inactive"}, {"measurement": "conversion of the racemic ester to the acid", "setting": "[5]; enzyme in aqueous phase and membrane pores, 3 gm Prozyme 6, 0.5M ester, pH 7.0, 6.75 hours at 30 C", "result": 48.3, "unit": "%"}, {"measurement": "conversion of the racemic ester to ibuprofen acid", "setting": "[5]; enzyme in aqueous phase only (cellulose dialysis fibers), 2 gm Prozyme 6, 32.51 gm ester in 1000 ml pH 7.0, hexane, 6.3 hours, room temperature", "result": 50, "unit": "%"}, {"measurement": "enantiomeric excess of R ibuprofen by chiral HPLC (acid product)", "setting": "[5]; enzyme in aqueous phase only, 6.3 hours", "result": 99.3, "unit": "%"}, {"measurement": "enantiomeric excess of S ibuprofen by chiral HPLC (from unconverted ester)", "setting": "[5]; enzyme in aqueous phase only, 6.3 hours, ester hydrolysed at pH 12", "result": 98.9, "unit": "%"}, {"measurement": "conversion of racemic ester to acid", "setting": "[6]; 100 mg Prozyme 6, 3.22 gm ester in 100 ml 0.2M sodium phosphate pH 7.0, 20 hours, room temperature", "result": 45, "unit": "%"}, {"measurement": "conversion", "setting": "[6]; 3 gm enzyme F, 0.5M ester in 325 ml 0.1M sodium phosphate pH 7.0, 30 C, after 6.49 hours", "result": 37.7, "unit": "%"}, {"measurement": "Conversion in Homogeneous Aqueous Reaction System", "setting": "[6]; 3 gm enzyme F, 23.1 hours", "result": 40.9, "unit": "%"}, {"measurement": "Conversion in Homogeneous Aqueous Reaction System", "setting": "[6]; 3 gm enzyme F, Time 6.75 hrs", "result": 37.7, "unit": "%"}, {"measurement": "% e.e.", "setting": "[2]; acid product (R), 100 mg enzyme A, pH 7.0, 20 hours, 20-22 C", "result": "> 99", "unit": "%"}, {"measurement": "conversion", "setting": "[7]", "result": 24, "unit": "%"}]}
{"molecule": "CC(C)Cc1ccc(C(C)C(=O)OCCS(=O)(=O)O)cc1", "note": "(centres unmarked) [Compound 2, Sodium Salt of 2-Sulfoethyl Ester of 2-(4-Isobutylphenyl)propanoic Acid]", "values": [{"measurement": "% e.e.", "setting": "[1]; acid product (R), 150 mg enzyme B, 125 ml buffer pH 7.0, 18 hours", "result": 90.0, "unit": "%"}, {"measurement": "% e.e.", "setting": "[2]; acid product (R), 150 mg enzyme A, 125 ml buffer pH 7.0, 18 hours", "result": "> 99", "unit": "%"}]}
{"molecule": "CC(C)Cc1ccc(C(C)C(=O)OCCCS(=O)(=O)O)cc1", "note": "(centres unmarked) [Compound 3, Potassium Salt of 3-Sulfopropyl Ester of 2-(4-Isobutylphenyl)propanoic Acid]", "values": [{"measurement": "% e.e.", "setting": "[8]", "result": 91.0, "unit": "%"}, {"measurement": "% CONVERSION", "setting": "Pig Liver Esterase (E); 0.010 mol ester in 100 ml 0.2M sodium phosphate buffer at pH 7.8 (heading: pH 7.0)", "result": 12.1, "unit": "%"}, {"measurement": "% e.e.", "setting": "Pig Liver Esterase (E); acid product (R), pH 7.8 (heading: pH 7.0)", "result": 88.0, "unit": "%"}, {"measurement": "% CONVERSION", "setting": "[2]; 100 mg enzyme A, 10 mmol ester in 100 ml 0.2M phosphate buffer pH 7.0, 20 hours, 20-22 C", "result": 50.0, "unit": "%"}, {"measurement": "conversion of the racemic ester to acid", "setting": "[2]; 1.00 gm enzyme A, about 1 M ester, 0.1M potassium phosphate pH 7.0, 23.9 hours, room temperature, by NaOH titration", "result": 29, "unit": "%"}]}
{"molecule": "CC(C)Cc1ccc(C(C)C(=O)OCCCCS(=O)(=O)O)cc1", "note": "(centres unmarked) [Compound 4, Potassium Salt of 4-Sulfobutyl Ester of 2-(4-Isobutylphenyl)propanoic Acid]", "values": [{"measurement": "% CONVERSION", "setting": "[9]", "result": 22.0, "unit": "%"}, {"measurement": "Solubility", "setting": "[10]", "result": 1130, "unit": "mM"}]}
{"molecule": "CC(C)Cc1ccc(C(C)C(=O)OCCOP(=O)(O)O)cc1", "note": "(centres unmarked) [Compound 5, Disodium Salt of the Phosphoric Acid Ester of the 2-Hydroxyethyl Ester of 2-(4-Isobutylphenyl)propanoic Acid]", "values": [{"measurement": "% CONVERSION", "setting": "[9]", "result": 5.3, "unit": "%"}]}
{"molecule": "CC(C)NCC(O)COc1cccc2ccccc12", "note": "[L-form of propranolol, propranolol]", "values": [{"measurement": "times more potent than the D-enantiomer", "setting": "[3]; L-form vs D-enantiomer", "result": 100, "unit": "times"}]}
